Measured values: patent US5135746A, “Control of protozoal disease” (Takeda Chemical Industries, Ltd., priority 1989, dated 1992)
Where “and” joins values, the source holds several entries; their conditions need not be identical. Equal entries are not always repeated.

Key:
[1] = test system: Laboratory Standard Strain Eimeria tenella; test: Anticoccidial effect in White Leghorn chicks infected with laboratory standard strain Eimeria tenella, drugs in feed for 9 days (Table 1); format: in vivo; set-up: Caecal Lesion: scale not given here; details: for OPG: day7; for Caecal Lesion: day-8
Procedure: (§1) The effect of the drugs to coccidiosis was examined using chicks. Namely, nine-day-old White Leghorn male chicks were divided into groups each of which consists of 3 chicks, and 5×10^4 sporulated oocysts per chick of laboratory standard strain Eimeria tenella were orally inoculated into the chicks in all groups except for the control group in which the chicks were not infected and not dosed with the drugs, at 24 hours after the start of dosing. Prescribed amounts of respective plant components dried and crushed and monensin sodium or salinomycin sodium were added to the basal feed (SDL No. 1: Nippon Haigo Shiryo), and continuously administered by the free ingesting method for 9 days from 24 hours before infection to 8 days after infection. The weight of each chick was measured, and the bloody dropping were observed. Further, the chicks were autopsied at day-8 after infection to examine the caecel lesion. Thus, the anticoccidial effect of the administered test drugs was determined.
Note ^1) Weight gain ratio = (Average weight gain for each test
Note ^2) The bloody feces index is indicated by the number of bloody
Note ^3) The caecal lesion is indicated by an average score when
Note ^5) The ND means "not detected".

[2] = Acute toxicity by oral administration to mice; details: mouse, in vivo
[3] = test system: Field Chicken Coocidia of Mixed Species; test: Combined effect of monensin and Rhizophoraceae bark in chicks infected with field coccidia of mixed species, 10,000 oocysts per chick (Table 6); format: in vivo, mixed strain containing five or more kinds of coccidia; details: 80 ppm in feed
Procedure: as §1
Using the mixed strain (large size oocysts: 5%, middle size oocysts: 72%, small size oocysts: 23%) collected in the field and containing five or more kinds of coccidia, the combined administration effect of monensin and Rhizophoraceae bark against chicks infected with 10,000 oocysts per chick was examined, by an infection experiment method in accordance with the method in Example 1. In Table 6, the general intestine lesion value was obtained by converting the sum of values judged by the five steps from 0 to +4 to a value per chick, for the lesion of upper, middle and lower parts of small intestine and caecum, according to the method described in Johnson and Reid, Exp. Parasitol. 28, 30-36 (1970). Other determinations were carried out in the same manner as with Example 1.

[4] = test system: Laboratory Standard Strain Eimeria tenella (AMD); test: Combined effect of ionophore antibiotics and Rhizophoraceae bark in infected chicks (Table 5); format: in vivo
Procedure: as §1
The combined administration effect of the ionophore antibiotics and Rhizophoraceae bark was examined, by an infection experiment method in accordance with the method in Example 1.

[5] = test system: Field Isolate Eimeria tenella (AMD); test: Anticoccidial effect in chicks infected with field isolate Eimeria tenella (AMD) resistant against ionophore antibiotics, 30,000 oocysts per chick (Tables 2-4); format: in vivo

## C=CCc1ccc(O)c(-c2ccc(O)c(CC=C)c2)c1 [Honokiol, honokiol]
[1]; 125 ppm in feed
  Mortality: 1/3
  No. of Bloody Droppings: 13.3
  Weight Gain Ratio: 41.6%
  OPG: 5.1 log
  Caecal Lesion: 4.0
[1]; 500 ppm in feed
  Mortality: 0/3
  No. of Bloody Droppings: 1.0
  Weight Gain Ratio: 99.4%
  OPG: 4.9 log
  Caecal Lesion: 3.3

## C=CCc1ccc(O)c(-c2cc(CC=C)ccc2O)c1 [Magnolol]
[2]
  LD50: 2200 mg/kg
[1]; 125 ppm in feed
  Mortality: 0/3
  No. of Bloody Droppings: 13.3
  Weight Gain Ratio: 62.5%
  OPG: 5.3 log
  Caecal Lesion: 4.0
[1]; 250 ppm in feed
  Mortality: 0/3
  No. of Bloody Droppings: 3.7
  Weight Gain Ratio: 89.3%
  OPG: 5.8 log
  Caecal Lesion: 4.0
[1]; 500 ppm in feed
  Mortality: 0/3
  No. of Bloody Droppings: 1.3
  Weight Gain Ratio: 94.5%
  OPG: 3.2 log
  Caecal Lesion: 3.3

## CCC1(C2OC(C3OC(O)(CO)C(C)CC3C)CC2C)CCC(C2(C)CCC3(CC(O)C(C)C(C(C)C(OC)C(C)C(=O)O)O3)O2)O1 (stereo not shown) [Monensin, monensin sodium]
[1]; 40 ppm in feed
  Mortality: 1/3
  No. of Bloody Droppings: 13.3
  Weight Gain Ratio: 36.7%
  OPG: 4.5 log
  Caecal Lesion: 4.0
[1]; 60 ppm in feed
  Mortality: 0/3
  No. of Bloody Droppings: 7.3
  Weight Gain Ratio: 92.9%
  OPG: 4.6 log
  Caecal Lesion: 4.0
[1]; 80 ppm in feed
  Mortality: 0/6
  No. of Bloody Droppings: 1.0
  Weight Gain Ratio: 103.2%
  OPG: 4.3 log
  Caecal Lesion: 2.2
[1]; 120 ppm in feed
  Mortality: 0/6
  No. of Bloody Droppings: 0
  Weight Gain Ratio: 103.2%
  OPG: 3.4 log
  Caecal Lesion: 0
[3]
  Mortality: 1/6
  No. of Bloody Droppings: 6.0
  Weight Gain Ratio: 89%
[3]; general intestine lesion value
  Caecal Lesion: 5.5
[4]; 80 ppm in feed
  Caecal Lesion: 3.2
  Mortality: 0/9
  No. of Bloody Droppings: 5.0
  Weight Gain Ratio: 88%
[5]; 80 ppm in feed
  Caecal Lesion: 4.0 and 3.8
  Mortality: 0/5
  No. of Bloody Droppings: 10.0 and 9.0
  OPG: 6.2 log and 6.1 log
  Weight Gain Ratio: 54.8% and 72.3%
[5]; 100 ppm in feed
  Caecal Lesion: 4.0
  Mortality: 0/5
  No. of Bloody Droppings: 8.0
  OPG: 6.1 log
  Weight Gain Ratio: 72.6%
[5]; 160 ppm in feed
  Mortality: 0/5
  No. of Bloody Droppings: 0
  OPG: 4.7 log
  Weight Gain Ratio: 81.5% and 86.5%
[5]; 240 ppm in feed
  Caecal Lesion: 0
  Mortality: 0/5
  No. of Bloody Droppings: 0
  Weight Gain Ratio: 46.5%
[5]; in feed
  concentration at which sufficient antiprotozoal activity is shown: ≥ 160 ppm

## CC[C@@H](C(=O)[C@@H](C)[C@@H](O)[C@H](C)[C@@H]1O[C@@H]([C@@H](CC)C(=O)O)CC[C@@H]1C)[C@H]1O[C@]2(C=C[C@@H](O)[C@]3(CC[C@@](C)([C@H]4CC[C@](O)(CC)[C@H](C)O4)O3)O2)[C@H](C)C[C@@H]1C [Salinomycin, salinomycin sodium]
[4]; 50 ppm in feed
  Caecal Lesion: 3.6
  Mortality: 1/9
  No. of Bloody Droppings: 7.0
  Weight Gain Ratio: 62%
[5]; 50 ppm in feed
  Caecal Lesion: 3.2
  Mortality: 0/5
  No. of Bloody Droppings: 9.0
  OPG: 5.8 log
  Weight Gain Ratio: 80.3%
